Measured values as given in US7393828B2, “Modified MscL protein channel” (Applied NanoSystems B.V., priority 2003, dated 2008).

Experiments:
[1] = target: MscL channel protein (G22C, cysteine at 22nd position) (Escherichia coli, UniProt P0A742, G22C); conditions: for pH at which channel activity starts: buffers at different pHs; for channel activity of modified protein in response to pH: same sample in the same buffer at different pHs
Description: All synthesized compounds were attached to the MscL protein from E. coli via cysteine modification. In this example, the 22nd position of the protein was mutated to a cysteine.
A membrane pellet fraction was obtained from a fermentor culture of E. coli pB104 cells containing the plasmid PB104 carrying the MscL(G22C)-6His construct. MscL was isolated to near homogeneity via a single nickel-nitriloacetic acid (Ni-NTA) metal-affinity chromatography step.
The protein modification reaction was stopped and the excess label was removed by applying the sample into a gel filtration column. The protein concentration of elution fractions was determined by Bradford Assay.
The modified protein was reconstituted in synthetic lipid membranes in order to follow the channel activity. For this purpose, DOPC:Cholesterol:DSPE-PEG (70:20:10 Molar ratio) liposomes were titrated with Triton-X100 until saturation. Titrated liposomes were mixed with modified protein in 1:120 (wt:wt) protein to lipid ratio. Biobeads were used to remove the detergent. A self-quenching dye, calcein, was added and included into the interior of the proteoliposomes during reconstitution.
Proteoliposomes containing modified MscL protein were analyzed by a fluorescent dye efflux assay. The activity of the channel was measured as an increase in the fluorescence of a reporter molecule, the dye calcein. Calcein is included in the liposome interior at a self-quenching concentration, but when the calcein escapes into the exterior medium, the dilution is such that quenching is completely abolished.
During reconstitution of the protein into the mixture of synthetic lipids in the presence of a detergent, a self-quenching dye, calcein, is also added into the mixture to a final concentration of 50 mM. After the reconstitution is completed by the removal of the detergent, the calcein-containing liposomal fraction was separated from the unencapsulated free calcein by passing the sample through a Sephadex G50 size exclusion column (FIG. 7A).
A portion of the liposomal fraction is placed in 2 ml iso-osmotic buffer and the activity of the channels is followed by measuring the increase in fluorescence as calcein becomes dequenched upon being released through the channel protein in response to a stimulus (FIG. 7B). Fluorescence was monitored with a SLM 500 spectrofluorometer Excitation and emission wavelengths were 490 (slit 2 nm) and 520 nm (slit 4 nm), respectively. A positively charged MTS reagent (MTSET) was used as a positive control.
The MscL protein was modified with the different pH-responsive compounds. The activity of the channel in response to pH was analyzed by the calcein efflux assay. In order to do that, the same buffer at different pHs were prepared and the same sample is analyzed in each buffer.
The MscL protein was modified with a light-sensitive compound. The activity of the channel was analyzed in response to pH. After measuring the initial fluorescence value for samples at each pH, they were exposed to 366 nm light for five to ten minutes. Then, the measurement was continued as before.
The protein from cysteine mutant MscL (cysteine in its 22nd amino acid position) was isolated and modified as explained in Example 2, except that the light-responsive compound E (see FIG. 12c) (P6—C1[X═I]) was dissolved in DM50 and incubated with the protein at a 1:500 molar ratio (protein:compound) for 45 minutes.
(§1) The resulting modified channel was reconstituted in the presence of a fluorescent dye as explained in Example 3 for the calcein efflux experiment. Another sample of the modified channel was prepared for patch clamp experiments as indicated in Example 6.
The protein was isolated and modified as in Example 2 and reconstituted in the presence of calcein as indicated in Example 3.

[2] = target: MscL channel protein (cysteine in its 22nd amino acid position) (Escherichia coli, UniProt P0A742, G22C)
Sequence of MscL channel protein (cysteine in its 22nd amino acid position) (P0A742 whole entry G22C): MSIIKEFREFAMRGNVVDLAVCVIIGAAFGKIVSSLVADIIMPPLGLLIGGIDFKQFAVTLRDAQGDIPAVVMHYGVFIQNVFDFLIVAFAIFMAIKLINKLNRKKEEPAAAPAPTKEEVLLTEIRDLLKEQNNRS
Description: The activity of the chemically modified MscL is analyzed real time at the single molecule level with patch clamp, a classical electrophysiological technique. This technique allows sealing a patch of membrane, which has embedded channel proteins in it, into the tip of a glass micropipette, and monitoring the ionic current flowing through the open channels in response to different conditions.
As a mechanosensitive channel, unmodified MscL needs a significant amount of tension on the membrane to gate. In patch clamp conditions, it corresponds to the application of negative pressure almost as high as that causing rupturing of the patched membrane.
The channel activity was measured by following its conductance.
The protein from cysteine mutant MscL (cysteine in its 22nd amino acid position) was isolated, modified and reconstituted as explained in Example 2. After reconstitution, giant proteoliposomes were prepared as indicated (A. H. Delcour, B. Martinac, F. R. Blattner, C. Kung, Biophys. J. 1989, 56:631-636). Ten μl rehydrated lipids were placed in 100 μl bath solution and resulting giant liposomes were patched by using glass pipettes with 1 μm tip size. They were made from 100 μl borosilicate capillaries in Sutter 97/IVF micropipette puller. Single channel recordings were performed at +20 mV in symmetrical buffer conditions in 200 mM KCl, 100 mM MgCl2, 5 mM HEPES, pH 6-8. Data were amplified and filtered in Axopatch1D amplifier and sampled in Digidata 1322A digitizer. Recordings were analyzed with pCLAMP8 software.
as §1
Membranes having modified channels were patched at dark or five to ten minutes after illumination with 366 nm light.

[3] = target: double cysteine MscL mutant (22nd and 23rd positions) (Escherichia coli, UniProt P0A742, G22C/V23C)
Sequence of double cysteine MscL mutant (22nd and 23rd positions) (P0A742 whole entry G22C/V23C): as the sequence (P0A742 whole entry G22C) above, with V23C counted along it
Description: In order to further improve modulation of the activity of chemically modified MscL, in addition to the amino acid at the 22nd position of the channel, the 23rd position is also replaced with cysteine. This way, if all the subunits are modified, one can introduce two times more charge.
This example compares the single- and double-cysteine mutants for their performance in efflux from proteoliposomes.
The protein from each mutant was obtained and modified with the Compound C (Q1[R1═R2=Me]-L1[n=2]—C3), as explained in Example 2, and the reconstitution for calcein efflux assay was as in Example 3.

[4] = Solubility of the product in common solvents; format: physicochemical

Sequence of MscL channel protein (G22C, cysteine at 22nd position) (P0A742 whole entry G22C): as the sequence (P0A742 whole entry G22C) above

CN(C)CC(=O)OCCSS(C)(=O)=O [compound C]
pH at which channel activity starts [1]: ~7.03 pH | release of liposomal content at high pH, single mutant ([1]; high pH): did not release the liposomal content | channel activity at pH 7.5 ([1]; pH 7.5): no activity | pH dependence of gating in patch clamp ([2]; different pHs): gated only at low pH environment | channel gating in patch clamp at pH 6.3 ([2]; pH 6.3): spontaneous gating | release of liposomal content at high pH, double mutant ([3]; high pH): did not release the liposomal content | release at low pH, double mutant compared with single mutant ([3]; low pH, two separate experiments): better release

COc1cc(COC(=O)NCCSS(C)(=O)=O)c([N+](=O)[O-])cc1OC [compound D, methanethiosulfonic acid S-[2-(4,5-dimethoxy-2-nitro-benzyloxycarbonylamino)-ethyl] ester]
channel activity after cleavage of the light-sensitive part ([1]; after 366 nm light for five to ten minutes, different pHs): pH-dependent activity | channel activity before photolysis ([1]; no illumination, different pHs): stayed inactive until the photolysis occurs | solubility in DMF and DMSO ([4]; DMF, DMSO): soluble | solubility in dichloromethane and chloroform ([4]; dichloromethane, chloroform): a little soluble | solubility in other common solvents ([4]; other common solvents): very badly soluble

CS(=O)(=O)SCCOC(=O)CN [compound A]
channel activity at physiological pH ([1]; physiological pH): some activity | channel activity of modified protein in response to pH [1]: pH-dependent activation, especially at lower pHs

C[N+](C)(C)CCSS(C)(=O)=O.[Br-] [MTSET, [2-(Trimethylammonium)-ethyl]-methanethiosulfonate bromide, reference compound]
channel opening after reaction with free sulfhydryl at 22nd position (positive control) ([1]; MTSET 0.8 mM final concentration as trigger): always opens the channel

COc1cc(COC(=O)CI)c([N+](=O)[O-])cc1OC [compound E, 4.5-dimethoxy-2-nitrobenzyl 2-iodoacetate]
release of fluorescent dye in the dark ([1]; dark, iso-osmotic conditions): did not give any release | release of fluorescent dye after illumination ([1]; exposed to ultraviolet light, iso-osmotic conditions): released the fluorescent dye as soon as proteoliposomes were exposed to ultraviolet light | channel gating in patch clamp at dark ([2]; dark, negative pressure up to membrane rupture): no channel gating | channel gating in patch clamp after illumination ([2]; five to ten minutes after illumination with 366 nm light, no tension): gated simultaneously with no tension

CNCC(=O)OCCSS(C)(=O)=O [compound B]
pH at which channel activity starts [1]: < 8 pH | pKa ([1]; compound attached to MscL): approximately 8 | channel activity of modified protein in response to pH [1]: pH-dependent activation | channel gating in patch clamp at pH 6.2 ([2]; pH 6.2, n=4): gated even without any applied negative pressure | mean negative pressure applied (until membrane rupture, no gating) ([2]; pH 7.2, n=10): 79 mmHg | channel activity in patch clamp at pH 7.2 ([2]; pH 7.2, n=10, negative pressure applied until the patched membrane ruptured): did not give any activity
